Measured values reported in PubChem BioAssay (NCI).
Where “and” joins values, the source holds several entries; their conditions need not be identical. Equal values may be shown once.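 Assay format: 96-well plates, 48-hour exposure. GI50: concentration for 50% inhibition of growth. TGI denotes the concentration required for complete inhibition of growth.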

Tests used:
Test in all cases: NCI tumour cell line growth inhibition, 48 h
SK-MEL-5 melanoma = test system: SK-MEL-5 melanoma
A549 NSCLC = test system: A549 NSCLC
T-47D breast = test system: T-47D breast
HT29 colon = test system: HT29 colon
HL-60(TB) leukemia = test system: HL-60(TB) leukemia
LOX IMVI melanoma = test system: LOX IMVI melanoma
NCI-H460 lung = test system: NCI-H460 lung
MALME-3M melanoma = test system: MALME-3M melanoma
HCT-116 colon = test system: HCT-116 colon
NCI-H23 lung = test system: NCI-H23 lung

Row | Compound | GI50 (SK-MEL-5 melanoma) [µM] | TGI (SK-MEL-5 melanoma) [µM] | GI50 (A549 NSCLC) [µM] | TGI (A549 NSCLC) | GI50 (T-47D breast) [µM] | TGI (T-47D breast) [µM] | GI50 (HT29 colon) [µM] | TGI (HT29 colon) [µM] | GI50 (HL-60(TB) leukemia) [nM] | TGI (HL-60(TB) leukemia) [µM] | GI50 (LOX IMVI melanoma) [µM] | TGI (LOX IMVI melanoma) [µM] | GI50 (NCI-H460 lung) [µM] | TGI (NCI-H460 lung) | GI50 (MALME-3M melanoma) [nM] | TGI (MALME-3M melanoma) [µM] | GI50 (HCT-116 colon) [µM] | TGI (HCT-116 colon) | GI50 (NCI-H23 lung) [µM] | TGI (NCI-H23 lung) [µM]
1 | C/C(=N/O)c1ccc2c(c1)/C(=N/O)c1ccccc1-2 | 17 | 31.2 | 24 | 62.9 µM | 24 | 52.7 | 18.2 | 40.7 | 15800 | 35.7 | 16.3 | 33.3 | 21.1 | 46.4 µM | 21900 | 46 | 20.7 | 38.5 µM | 18.3 | 34.2
2 | COc1cc(/C=C/C(=O)N2CCC=CC2=O)cc(OC)c1OC | 3.35 | 12 | 8.57 | 22.8 µM | 2.56 | 8.51 | 2.98 | 9.08 | 1910 | 5.28 | 2.09 | 5.13 | 3.36 | 10.6 µM | 1970 | 3.97 | 1.8 | 4.13 µM | 1.81 | 4.03
3 | O=C(/C=C/C(Cl)(Cl)Cl)Nc1ccc(Cl)cc1 | – | 23.5 | – | 8.98 µM | – | 7.84 | – | 4.03 | – | 2.03 | – | 2.2 | – | 40 µM | – | 18.9 | – | 17.6 µM | – | 11.3
4 | NC(=O)CC1(O)C=C(Br)C(=O)C(Br)=C1 | 12.5 | 25.6 | 19 | 37.8 µM | 2.57 | 7.87 | 4.03 | 19 | 1850 | 4.64 | 3.65 | 13 | 18.5 | 37 µM | 2120 | 4.36 | 0.392 | 10.7 µM | 8.99 | 24.6
5 | COc1cccc(/C=C/c2ccnc3ccccc23)c1OC | – | > 10 | – | > 10 µM | – | > 10 | – | > 10 | – | > 10 | – | > 10 | – | > 10 µM | – | > 10 | – | > 10 µM | – | > 10
6 | NC1=NC(=O)/C(=C/c2ccc3ncccc3c2)S1 | > 25 | > 25 | > 25 | > 25 µM | > 15.6 | > 25 | > 25 | > 25 | > 25000 | > 25 | > 25 | > 25 | > 25 | > 25 µM | > 25000 | > 25 | > 13.8 | > 25 µM | > 25 | > 25
7 | COc1ccc(Cl)cc1Nc1nc(C(F)(F)F)ccc1C(=O)N/N=C/c1cccnc1 | 2.64 | 65.3 | 5.49 | > 100 µM | 2.12 | > 100 | 6.01 | > 100 | 1950 | > 100 | 3.17 | > 100 | 4.03 | > 100 µM | 2550 | > 100 | 3.43 | > 100 µM | 5.34 | > 100
8 | CCOc1ccc2c(c1)CN(Cc1ccc(Cl)cc1)CO2 | 15.2 | 28.9 | 35.1 | > 100 µM | 17.8 | 52.7 | 20.3 | 40.4 | 19200 | 42.8 | 17.2 | 33.4 | 16 | 32.4 µM | 14800 | 29.5 | 14.8 | 29 µM | 25.8 | 94.5
9 | COc1ccc(-c2[nH]nc(N)c2-c2cc(OC)c3c(c2)OCO3)cc1 | 2.85 | 8.97 | 4.73 | > 100 µM | 6.52 | > 100 | 3.65 | 25.7 | 2890 | 10.3 | 4.86 | > 100 | 3.38 | > 100 µM | 5010 | > 100 | 2.71 | > 100 µM | 3.87 | > 100
10 | O=C1C=CC(=Nc2cccc3c(N=C4C=CC(=O)O4)cccc23)O1 | – | > 100 | – | > 100 µM | – | > 100 | – | > 100 | – | – | – | 91.2 | – | > 100 µM | – | 42.8 | – | 53.1 µM | – | > 100
11 | CC(=O)OC(C)(C)/C=C/C(=O)[C@](C)(O)[C@H]1[C@H](O)C[C@@]2(C)[C@@H]3CC=C4[C@@H](C=C(O)C(=O)C4(C)C)[C@]3(C)C(=O)C[C@]12C | – | – | – | 6.51 µM and 1.23 µM and 2.65 µM | – | 1.46 | – | – | – | – | – | – | – | 1.81 µM and 1.68 µM and 1.49 µM | – | – | – | 1.39 µM [middle of 4 runs] | – | –
12 | C=C1C(=O)O[C@H]2[C@H]1CC/C(Cn1cc(-c3cccc(Cl)c3)nn1)=C\CC[C@@]1(C)O[C@@H]21 | 1.7 | 3.08 | 1.79 | 3.57 µM | – | – | 0.51 | 1.73 | 332 | 1.31 | 0.285 | 0.898 | 2.13 | 4.52 µM | 1200 | 2.92 | 0.163 | 0.377 µM | 1.58 | 3.27
13 | ClCc1ccc(Cn2cnc3c(Cl)ncnc32)cc1 | 11.7 | 35.9 | 11.2 | 38.3 µM | – | > 100 | > 45 | > 100 | 10100 | 23.1 | 5.8 | 20.4 | 1.34 | 15.6 µM | – | – | 10.4 | 17.4 µM | 6.99 | 17.3
14 | C[C@H](CS)C(=O)N1c2ccccc2C[C@H]1C(=O)O | – | > 100 | – | > 100 µM | – | > 100 | – | > 100 | – | > 100 | – | – | – | > 100 µM | – | – | – | > 100 µM | – | > 100
15 | O=C1C2c3[nH]c4ccccc4c3C3CCCCCC3C2C(=O)N1c1ccccc1 (stereo not given) | – | > 100 | – | > 67.5 µM | – | – | – | > 100 | – | > 70.3 | – | > 49.9 | – | > 77.4 µM | – | 41.1 | – | 62.7 µM | – | > 82.9
